Measurements published in patent US12263144B2, “Methods of treating IgA nephropathy with thiol-containing molecules” (Accubit LLC—Biotechnology, priority 2020, dated 2025).

Legend:
[1] = test system: glomerular rIgA deposition; assay: Passive rat model of IgA deposition (rat rIgA injection), glomerular immunofluorescence; format: in vivo, Wistar rats; conditions: rats, 250 mg/kg s.c. daily 2 h before rIgA i.v., 5 days, n=3; control 1384±290
Procedure: (§1) To establish the passive rat model, 5 mg/kg.BW recombinant rat rIgA, which contained a fraction of poly-rIgA, were i.v. injected daily to six 14-weeks old male Wistar rats (Charles River Labs, USA) for 5 consecutive days. Every day, three rats in each group had received a subcutaneous dose of either 250 mg/kg cysteamine, or buffer control, two hours before the rIgA injection. Twenty-four hours after the last injection of rIgA, kidneys were collected for immunofluorescence detection of deposits with goat-anti-rat IgA antibody (Cat: STAR111, Biorad laboratory). Similarly, a passive IgA nephrophathy mouse model was established by injecting 35 mg/kg purified human IgA1 in BALB/c mice (Charles River Labs). Two hours before IgA1 injection, six mice in each experimental group had each received a pretreatment dose of either 200 mg/kg cysteamine, or PBS, via subcutaneous injection. Two and a half hours after human IgA1 injection, kidneys were harvested, and specimens were stained with FITC-conjugated anti-human IgA antibody (Cat: 2050-02, SouthernBiotech). Plasma samples were collected at 0.5 h, 1 h and 2 h after IgA1 injection of all mice.
(§2) Frozen tissues were sectioned at 4 μm for IgA detection using goat anti-rat IgA (Cat: STAR111, Bio-Rad Laboratories) at 1:100, or anti-human IgA antibody (Cat: 2050-02, […]) at 1:80 dilution. […]

[2] = test system: glomerular human IgA1 deposition; assay: Passive mouse model of IgA deposition (human IgA1 injection), glomerular immunofluorescence and blood IgA1; format: in vivo, BALB/c mice; conditions: mice, 200 mg/kg s.c. 2 h before human IgA1 injection, n=6; buffer 2293±163
Procedure: as §1, §2

NCCS [cysteamine]
quantitation of rIgA deposit in glomeruli (Mean±SEM immunofluorescence intensity) [1]: 523±76
glomerular IgA1 intensity (Mean±SEM) [2]: 870±193
